Measured values from PubChem BioAssay (NCI).
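A five-concentration, 48-hour dose response in 96-well plates underlies each endpoint, interpolated linearly between surrounding concentrations. Abbreviation: GI50, concentration required for 50% inhibition of growth. TGI is the concentration that stops growth completely.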

Experiments:
Assay in all cases: DTP human tumour cell line panel, 48 h
A549 NSCLC = tested on: A549 NSCLC
HT29 colon = tested on: HT29 colon
MDA-MB-231 breast = tested on: MDA-MB-231 breast
OVCAR-4 ovarian = tested on: OVCAR-4 ovarian
PC-3 prostate = tested on: PC-3 prostate
SF-539 CNS = tested on: SF-539 CNS
SK-MEL-2 melanoma = tested on: SK-MEL-2 melanoma
SK-MEL-5 melanoma = tested on: SK-MEL-5 melanoma
T-47D breast = tested on: T-47D breast
TK-10 renal = tested on: TK-10 renal

SMILES | GI50 (A549 NSCLC) [µM] | TGI (A549 NSCLC) [µM] | GI50 (HT29 colon) [nM] | TGI (HT29 colon) [µM] | GI50 (MDA-MB-231 breast) [µM] | TGI (MDA-MB-231 breast) [µM] | GI50 (OVCAR-4 ovarian) [nM] | TGI (OVCAR-4 ovarian) [µM] | GI50 (PC-3 prostate) [nM] | TGI (PC-3 prostate) [µM] | GI50 (SF-539 CNS) [nM] | TGI (SF-539 CNS) [µM] | GI50 (SK-MEL-2 melanoma) [nM] | TGI (SK-MEL-2 melanoma) [µM] | GI50 (SK-MEL-5 melanoma) [nM] | TGI (SK-MEL-5 melanoma) [µM] | GI50 (T-47D breast) [nM] | TGI (T-47D breast) [µM] | GI50 (TK-10 renal) [nM] | TGI (TK-10 renal) [µM]
CCCCCCC/C=C/[C@H]1O[C@]2(O)C(=O)C=C3C[C@@H](O[C@@H]4O[C@H](CO)[C@@H](O)C(O)[C@@H]4O)C[C@@H]3[C@H]2C=C1C (stereo not given in full) | 5.98 | 23.4 | 4130 | 10 | 1.2 | 5.53 | 2750 | 7.83 | 1560 | 11.7 | 1320 | 5.12 | 3460 | 9.34 | 4310 | 8.53 | 919 | 5.34 | 5510 | 11
CC1(C)CCCC(C)(C2CCC3(C)C2C(O)CC2C4(C)CCC(O)C(C)(C)C4C(O)CC23C)O1 (stereo not given) |  | 24.4 |  | 14 |  | 34.8 |  | 26 |  | 25.7 |  | 28.1 |  | 28 |  | 17.6 |  | 28.9 |  | 25.4
CC1=C(C(=O)Nc2ccc3[nH]ncc3c2)C(c2ccc(Cl)c(Cl)c2)CC(=O)N1 (stereo not given) | > 25 | > 25 | 24600 | > 25 | 15.9 | > 25 | > 25000 | > 25 | > 20400 | > 25 | > 16800 | > 25 | > 25000 | > 25 | > 25000 | > 25 | > 25000 | > 25 | > 12500 | > 25
COc1ccc2c(Cc3c4ccccc4cc4ccccc34)cncc2c1O |  | > 39.8 |  | 33.5 |  | 8.95 |  | > 74.2 |  | > 59.9 |  | 0.546 |  | 17.5 |  | 3.05 |  | > 71.7 |  | 17.6
NC(=S)N/N=C/c1ccc(N)cn1 |  | > 10 |  | > 10 |  | > 10 |  | > 10 |  | > 10 |  | 2.2 |  | > 10 |  | > 6.95 |  | > 10 |  | > 10
COC1=C(Br)C(O)C2(C=C1Br)CC(C(=O)NCCCCNC(=O)C1=NOC3(C=C(Br)C(OC)=C(Br)C3O)C1)=NO2 (stereo not given) |  | > 100 |  | 38.8 |  | 66.6 |  | > 100 |  | 62.8 |  | 50.3 |  | 52.8 |  | 36.6 |  | 62.9 |  | > 100
C=C1CCC2C3(C)COC(c4c(OC)cccc4OC)OC3CCC2(C)C1C/C=C1/C(=O)OCC1O (stereo not given) | 3.14 | 11.6 | 2510 | 6.62 | 7.57 | 26.4 | 2420 | 6.73 | 2660 | 11.7 | 2550 | 6.35 | 7180 | 21.9 | 2830 | 8.57 | 5430 | 26.9 | 4030 | 12.5
CC[C@@H](C(=O)[C@H](C)[C@H](O)[C@@H](C)[C@H]1O[C@H]([C@@H](CC)C(=O)O)CC[C@H]1C)C1O[C@]2(C=C[C@@H](O)[C@]3(CC[C@@](C)([C@H]4CC[C@](O)(CC)[C@H](C)O4)O3)O2)[C@H](C)C[C@@H]1C (stereo not given in full) | 0.267 | 21.6 | 357 | 30.2 | 0.586 | 6.71 | 821 | 44.8 | 69.2 | 49 | 328 | 4.05 | 1270 | 4.5 | 102 | 0.274 | 125 | 16.7 | 1680 | 83.1
Cc1ccc(/C=C/C(=N/N=C(N)N)c2ccccc2)cc1 | 3.46 | 12.5 | 2530 | 7.59 | 1.7 | 4.56 | 3650 | 15.6 | 3320 | 16.9 | 2750 | 8.65 | 2750 | 8.04 | 1690 | 3.86 | 4300 | 18.1 | 3890 | 12
Nc1ccccc1NC(=O)c1ccc(CN2CCC/C(=C\c3ccccn3)C2=O)cc1 | 2.41 | > 100 | 443 | > 100 | 4.04 | > 100 | 2660 | > 100 | 1330 | > 100 | 1580 | > 100 | 1570 | 11.8 | 1460 | 3.79 | 806 | 9.59 | 107 | 4.18
COc1cc2oc(-c3ccc(O)cc3O)c(CC=C(C)C)c(=O)c2c(O)c1/C=C/C(C)C |  | 7.75 |  | 5.74 |  | 6.17 |  | 8.44 |  | 8.2 |  | 10.4 |  | 17.9 |  | 3.06 |  | 23.4 |  | 14.1
CC(C)=CCC1=C(OCC(=O)O)C(=O)c2ccccc2C1=O |  | > 100 |  | > 100 |  | > 100 |  | 99.1 |  | > 100 |  | 56.6 |  | 84.2 |  | 41.4 |  | > 100 |  | > 100
CCCCCCCCCCC/C=C\C[C@H](O)C/C=C1/C(=O)C=C[C@@H]1C/C=C\CCCC(=O)OC | 5.96 | 33.3 | 1030 | 2.85 | 0.895 | 2.61 | 862 | 3.68 | 836 | 2.76 | 1020 | 3.71 | 1460 | 5.67 | 603 | 1.17 | 796 | 3.44 | 1950 | 9.78
C[N+](C)(CCCCCC[N+](C)(C)CCCN1C(=O)c2cc3ccccc3cc2C1=O)CCCN1C(=O)c2cc3ccccc3cc2C1=O | > 37.5 | > 37.5 | > 37500 | > 37.5 | > 37.5 | > 37.5 | > 37500 | > 37.5 | > 37500 | > 37.5 | > 37500 | > 37.5 | > 37500 | > 37.5 | > 37500 | > 37.5 | > 37500 | > 37.5 | > 37500 | > 37.5
COc1cccc(-n2cc(-c3nc(Nc4cc(C)[nH]n4)c4ccccc4n3)nn2)c1 | 2.33 | 11.4 | 7050 | 14.5 | 3.02 | 15.6 | 2240 | 9.57 | 3480 | 11.9 | 4250 | 11.1 | 1710 | 9.27 | 1070 | 4.06 | 2000 | 9.61 | 438 | 8.42
C[C@]12CC[C@H]3[C@@H](CCC4=CC(=O)CC[C@@]43C)[C@@H]1CC[C@@H]2C(=O)COS(=O)(=O)c1ccc(Br)cc1 |  | 44.6 |  | 30.3 |  | 17.7 |  | > 51.2 |  | 23 |  | > 60.7 |  | 22.3 |  | 47.9 |  | 37.5 |  | 34.5
